Source: US20160122342A1, “ENHANCER OF ZESTE HOMOLOG 2 INHIBITORS” (GLAXOSMITHKLINE INTELLECTUAL PROPERTY (NO.2) LIMITED, priority 2013, published 2016)
Structures can show the parent of a compound that is named as a salt.

Experiments:
[1] = target: T1, EZH2 within the PRC2 complex (Homo sapiens, UniProt Q15910); test: Assay Protocol 1: EZH2 methyltransferase scintillation proximity assay, mononucleosome substrate; assay type: biochemical; conditions: Assay Protocol 1; SPA, 3H-SAM, Histone H3 of mononucleosome purified from HeLa cells; 5-member PRC2 complex; read-out: EZH2 IC50
T1 construct: FLAG; made in house; host or cells: Sf9 cells
T1 sequence (Q15910 whole entry): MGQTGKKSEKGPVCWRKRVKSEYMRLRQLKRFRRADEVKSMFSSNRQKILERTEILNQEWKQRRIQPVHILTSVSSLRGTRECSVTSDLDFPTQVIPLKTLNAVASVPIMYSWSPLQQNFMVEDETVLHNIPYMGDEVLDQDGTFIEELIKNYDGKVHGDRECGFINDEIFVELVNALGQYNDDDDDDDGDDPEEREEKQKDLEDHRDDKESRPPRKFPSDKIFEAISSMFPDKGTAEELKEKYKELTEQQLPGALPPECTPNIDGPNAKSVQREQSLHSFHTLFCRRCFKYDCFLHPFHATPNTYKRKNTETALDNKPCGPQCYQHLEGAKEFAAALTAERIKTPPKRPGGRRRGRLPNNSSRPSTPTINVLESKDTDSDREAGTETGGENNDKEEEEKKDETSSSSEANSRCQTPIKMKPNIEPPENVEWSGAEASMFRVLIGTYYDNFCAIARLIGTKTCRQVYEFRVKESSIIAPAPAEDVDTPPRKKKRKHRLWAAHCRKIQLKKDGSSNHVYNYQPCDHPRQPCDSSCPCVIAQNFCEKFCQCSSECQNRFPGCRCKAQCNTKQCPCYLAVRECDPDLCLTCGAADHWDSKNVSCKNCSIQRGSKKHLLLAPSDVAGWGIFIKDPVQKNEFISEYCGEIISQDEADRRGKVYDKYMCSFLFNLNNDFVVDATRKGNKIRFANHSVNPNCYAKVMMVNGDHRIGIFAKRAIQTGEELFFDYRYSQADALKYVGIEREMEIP
T1 sequence (O75530 whole entry partner): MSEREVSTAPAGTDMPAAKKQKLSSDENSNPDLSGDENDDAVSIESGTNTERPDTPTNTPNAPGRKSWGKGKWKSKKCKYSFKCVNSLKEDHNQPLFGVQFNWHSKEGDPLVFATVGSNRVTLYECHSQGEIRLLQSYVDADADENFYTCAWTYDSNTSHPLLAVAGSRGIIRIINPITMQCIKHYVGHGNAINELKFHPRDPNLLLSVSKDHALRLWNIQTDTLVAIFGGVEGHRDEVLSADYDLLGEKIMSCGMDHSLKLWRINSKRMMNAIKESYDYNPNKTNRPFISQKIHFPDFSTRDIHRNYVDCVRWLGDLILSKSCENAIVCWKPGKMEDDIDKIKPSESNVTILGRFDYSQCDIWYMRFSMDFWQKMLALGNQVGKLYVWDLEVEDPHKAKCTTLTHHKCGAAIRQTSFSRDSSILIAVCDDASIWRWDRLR
T1 sequence (Q15022 whole entry partner): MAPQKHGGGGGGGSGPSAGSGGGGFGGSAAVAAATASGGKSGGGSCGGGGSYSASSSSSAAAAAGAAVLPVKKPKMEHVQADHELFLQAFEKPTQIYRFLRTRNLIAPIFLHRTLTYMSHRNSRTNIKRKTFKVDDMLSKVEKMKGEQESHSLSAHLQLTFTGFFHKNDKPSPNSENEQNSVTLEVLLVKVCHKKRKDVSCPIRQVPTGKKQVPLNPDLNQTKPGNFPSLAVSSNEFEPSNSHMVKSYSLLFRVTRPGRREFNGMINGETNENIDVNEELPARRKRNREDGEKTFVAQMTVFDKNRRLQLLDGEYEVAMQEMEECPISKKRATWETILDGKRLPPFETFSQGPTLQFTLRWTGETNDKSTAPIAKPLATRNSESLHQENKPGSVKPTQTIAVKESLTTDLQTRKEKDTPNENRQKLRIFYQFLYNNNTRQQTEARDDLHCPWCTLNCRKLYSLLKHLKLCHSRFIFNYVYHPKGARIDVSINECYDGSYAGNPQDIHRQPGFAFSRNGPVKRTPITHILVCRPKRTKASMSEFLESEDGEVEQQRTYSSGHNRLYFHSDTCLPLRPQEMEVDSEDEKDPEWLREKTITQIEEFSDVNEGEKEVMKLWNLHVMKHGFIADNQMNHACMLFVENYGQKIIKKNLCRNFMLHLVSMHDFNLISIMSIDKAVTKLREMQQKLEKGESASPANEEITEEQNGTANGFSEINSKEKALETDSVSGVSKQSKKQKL
T1 sequence (Q09028 whole entry partner): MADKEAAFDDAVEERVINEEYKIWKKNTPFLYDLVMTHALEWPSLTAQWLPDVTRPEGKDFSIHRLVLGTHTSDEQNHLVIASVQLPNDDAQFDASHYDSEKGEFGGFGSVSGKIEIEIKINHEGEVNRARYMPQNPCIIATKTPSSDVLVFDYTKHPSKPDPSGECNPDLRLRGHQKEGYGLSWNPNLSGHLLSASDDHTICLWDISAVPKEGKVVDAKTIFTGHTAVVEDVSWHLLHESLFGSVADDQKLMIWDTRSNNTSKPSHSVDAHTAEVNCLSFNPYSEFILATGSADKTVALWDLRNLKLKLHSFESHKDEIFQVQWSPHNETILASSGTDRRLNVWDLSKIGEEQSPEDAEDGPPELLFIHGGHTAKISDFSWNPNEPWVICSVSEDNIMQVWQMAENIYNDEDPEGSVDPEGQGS
T1 sequence (Q6ZN18 whole entry partner): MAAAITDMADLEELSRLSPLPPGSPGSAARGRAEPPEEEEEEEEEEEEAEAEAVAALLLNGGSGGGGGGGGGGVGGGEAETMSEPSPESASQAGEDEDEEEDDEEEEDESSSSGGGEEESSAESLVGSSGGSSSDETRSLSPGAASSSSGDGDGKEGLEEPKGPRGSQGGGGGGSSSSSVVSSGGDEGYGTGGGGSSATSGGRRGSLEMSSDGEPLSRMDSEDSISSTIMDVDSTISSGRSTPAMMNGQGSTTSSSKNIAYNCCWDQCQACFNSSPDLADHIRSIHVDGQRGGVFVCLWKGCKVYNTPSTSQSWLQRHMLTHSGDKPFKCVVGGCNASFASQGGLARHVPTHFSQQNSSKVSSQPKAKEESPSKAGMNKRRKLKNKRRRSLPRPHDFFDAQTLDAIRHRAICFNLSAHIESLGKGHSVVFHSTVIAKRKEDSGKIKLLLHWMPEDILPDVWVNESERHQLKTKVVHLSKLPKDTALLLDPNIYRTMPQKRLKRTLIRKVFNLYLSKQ
Method: Compounds contained herein were evaluated for their ability to inhibit the methyltransferase activity of EZH2 within the PRC2 complex. […] Mononucleosomes were captured on SPA beads and the resulting signal is read on a ViewLux plate reader. • 1. Prepare 10 mM stock of compounds from solid in 100% DMSO. • 2. […] Dispense 100 nL of compound from the dilution plate into reaction plates (Grenier Bio-One, 384-well, Cat#784075). Prepare the following solutions: • 1. 50 mM Tris-HCl, pH 8: Per 1 L of base buffer, combine 1 M Tris-HCl, pH 8 (50 mL) and distilled water (950 mL). • 2. 1× Assay Buffer: […] SPA Bead Suspension: […] Per 10 mL of 2× Substrate Solution, combine 1× Assay Buffer (9728.55 uL), 800 ug/mL mononucleosomes (125 uL), 1 mM cold SAM (4 uL), and 7.02 uM 3H-SAM (142.45 uL; 0.55 mCi/mL) to provide a final concentration of 5 ug/mL nucleosomes, 0.2 uM cold SAM, and 0.05 uM 3H-SAM. • 6. 2.67× Quench/Bead Mixture: Per 10 mL of 2.67× Quench/Bead Mixture, combine ddH2O (9358 uL), 10 mM cold SAM (267 uL), 40 mg/mL Bead Suspension (375 uL) to provide a final concentration of 100 uM cold SAM and 0.5 mg/mL SPA beads. • 1. Dispense 100 nL/well of 100× Compound to test wells (as noted above). • 2. […] • 1. Dispense 5 uL/well of 1× Assay Buffer to column 18 (low control reactions). • 2. Dispense 5 uL/well of 2× Enzyme Solution to columns 1-17, 19-24. • 3. Spin assay plates for ˜1 minute at 500 rpm. • 4. Stack the assay plates, covering the top plate. • 5. Incubate the compound/DMSO with the enzyme for 30 minutes at room temperature. • 6. Dispense 5 uL/well of 2× Substrate Solution to columns 1-24. • 7. Spin assay plates for ˜1 minute at 500 rpm. • 8. Stack the assay plates, covering the top plate. • 9. Incubate the assay plates at room temperature for 1 hour. • 1. Dispense 5 uL/well of the 3× Quench/Bead Mixture to columns 1-24. • 2. Seal the top of each assay plate with adhesive TopSeal. • 3. Spin assay plates for ˜1 minute at 500 rpm. • 4. […] • 1. Read the assay plates on the Viewlux Plate Reader utilizing the 613 nm emission filter with a 300 s read time. Reagent addition can be done manually or with automated liquid handler. The final DMSO concentration in this assay is 1%. The positive control is in column 6; negative control is in column 18. Final starting concentration of compounds is 100 μM. Percent inhibition was calculated relative to the DMSO control for each compound concentration and the resulting values were fit using standard IC50 fitting parameters within the ABASE data fitting software package.

[2] = target: T1, EZH2 within the PRC2 complex; test: Assay Protocol 2: EZH2 methyltransferase scintillation proximity assay, biotinylated histone H3 peptide substrate; assay type: biochemical; conditions: SPA, 3H-SAM, biotinylated unmethylated histone H3K27 peptide substrate, 5-member PRC2 complex
Method: Compounds contained herein were evaluated for their ability to inhibit the methyltransferase activity of EZH2 within the PRC2 complex. […] The peptides were captured on streptavidin-coated SPA beads and the resulting signal was read on a ViewLux plate reader. • 4. Prepare 10 mM stock of compounds from solid in 100% DMSO. • 5. […] Dispense 10 nL of compound from the dilution plate into reaction plates (Corning, 384-well polystyrene NBS, Cat#3673). Prepare the following solutions: • 7. 1× Base Buffer, 50 mM Tris-HCl, pH 8, 2 mM MgCl2: Per 1 L of base buffer, combine 1 M Tris-HCl, pH 8 (50 mL), 1 M MgCl2 (2 mL), and distilled water (948 mL). • 8. 1× Assay Buffer: Per 10 mL of 1× Assay Buffer, combine 1× Base Buffer (9.96 mL), 1 M DTT (40 uL), and 10% Tween-20 (1 uL) to provide a final concentration of 50 mM Tris-HCl, pH 8, 2 mM MgCl2, 4 mM DTT, 0.001% Tween-20. • 9. 2× Enzyme Solution: […] SPA Bead Solution: Per 1 mL of SPA Bead Solution, combine Streptavidin coated SPA beads (PerkinElmer, Cat# RPNQ0261, 40 mg) and 1× Assay Buffer (1 mL) to provide a working concentration of 40 mg/mL. • 11. 2× Substrate Solution: Per 10 mL of 2× Substrate Solution, combine 40 mg/mL SPA Bead Solution (375 uL), 1 mM biotinylated histone H3K27 peptide (200 uL), 12.5 uM 3H-SAM (240 uL; 1 mCi/mL), 1 mM cold SAM (57 uL), and 1× Assay Buffer (9.13 mL) to provide a final concentration of 0.75 mg/mL SPA Bead Solution, 10 uM biotinylated histone H3K27 peptide, 0.15 uM 3H-SAM (˜12 uCi/mL 3H-SAM), and 2.85 uM cold SAM. • 12. 2.67× Quench Solution: Per 10 mL of 2.67× Quench Solution, combine 1× Assay Buffer (9.73 mL) and 10 mM cold SAM (267 uL) to provide a final concentration of 100 uM cold SAM. • 3. […] Dispense 5 uL/well of 1× Assay Buffer to column 18 (low control reactions). • 11. Dispense 5 uL/well of 2× Substrate Solution to columns 1-24 (note: substrate solution should be mixed to ensure homogeneous bead suspension before dispensing into matrix reservoir). • 12. Dispense 5 uL/well of 2× Enzyme Solution to columns 1-17, 19-24. • 13. Incubate the reaction for 60 min at room temperature. • 5. Dispense 6 uL/well of the 2.67× Quench Solution to columns 1-24. • 6. Seal assay plates and spin for ˜1 min at 500 rpm. • 7. Dark adapt plates in the ViewLux instrument for 15-60 min. • 2. Read the assay plates on the Viewlux Plate Reader utilizing the 613 nm emission filter or clear filter (300 s exposure). Reagent addition can be done manually or with automated liquid handler. Percent inhibition was calculated relative to the DMSO control for each compound concentration and the resulting values were fit using standard IC50 fitting parameters within the ABASE data fitting software package.

| Compound | IC50 [1] | IC50 [2] |
| --- | --- | --- |
| CCN(c1cccc2c1C/C=C/CCCc1cc(C)[nH]c(=O)c1CNC2=O)C1CCOCC1 [Example 19, (E)-11-(ethyl(tetrahydro-2H-pyran-4-yl)amino)-3-methyl-5,6,7,10,16,17-hexahydro-1H-benzo[c]pyrido[4,3-k][1]azacyclotridecine-1,15(2H)-dione] | 40 nM | 79 nM |
| Cc1cc2c(c(=O)[nH]1)CNC(=O)c1cc(Cl)cc(O[C@H]3CC[C@H](N(C)C)CC3)c1CCCCC2 [Example 3, 12-chloro-10-((trans-4-(dimethylamino)cyclohexyl)oxy)-3-methyl-6,7,8,9,15,16-hexahydrobenzo[c]pyrido[4,3-j][1]azacyclododecine-1,14(2H,5H)-dione] | 100 nM | 158 nM |
| CCN(c1cccc2c1C/C=C\CCc1cc(C)[nH]c(=O)c1CNC2=O)C1CCNCC1 [Example 52, (Z)-10-(ethyl(piperidin-4-yl)amino)-3-methyl-5,6,15,16-tetrahydrobenzo[c]pyrido[4,3-j][1]azacyclododecine-1,14(2H,9H)-dione] | 631 nM | 2000 nM |
| CCN(c1cccc2c1C/C=C/CCc1cc(C)[nH]c(=O)c1CNC2=O)C1CCN(CC2CC2)CC1 [Example 41, (E)-10-((1-(cyclopropylmethyl)piperidin-4-yl)(ethyl)amino)-3-methyl-5,6,15,16-tetrahydrobenzo[c]pyrido[4,3-j][1]azacyclododecine-1,14(2H,9H)-dione] | 40 nM | 40 nM |
| Cc1cc2c(c(=O)[nH]1)CNC(=O)c1cc(Cl)cc(OC(C)C)c1C/C=C/CC2 [Example 18, (E)-12-chloro-10-isopropoxy-3-methyl-5,6,15,16-tetrahydrobenzo[c]pyrido[4,3-j][1]azacyclododecine-1,14(2H,9H)-dione] | 100 nM | 316 nM |
| CCN(c1cccc2c1C/C=C/CCc1cc(C)[nH]c(=O)c1CNC2=O)C1CCN(C)CC1 [Example 33, (E)-10-(ethyl(1-methylpiperidin-4-yl)amino)-3-methyl-5,6,15,16-tetrahydrobenzo[c]pyrido[4,3-j][1]azacyclododecine-1,14(2H,9H)-dione] | 40 nM | 200 nM |
| CCN(c1cccc2c1C/C=C/CCc1cc(C)[nH]c(=O)c1CNC2=O)C1CCN(C(CO)CO)CC1 [Example 51, (E)-10-((1-(1,3-dihydroxypropan-2-yl)piperidin-4-yl)(ethyl)amino)-3-methyl-5,6,15,16-tetrahydrobenzo[c]pyrido[4,3-j][1]azacyclododecine-1,14(2H,9H)-dione] | 200 nM | 398 nM |
| CCN(c1cccc2c1CC=CCOCc1cc(C)[nH]c(=O)c1CNC2=O)C1CCOCC1 (racemic) [Example 12, (E)- and (Z)-11-(ethyl(tetrahydro-2H-pyran-4-yl)amino)-3-methyl-7,10,16,17-tetrahydrobenzo[h]pyrido[4,3-c][1,6]oxaazacyclotridecine-1,15(2H,5H)-dione] | 126 nM | 200 nM |
| CCN(c1cccc2c1C/C=C\CCCc1cc(C)[nH]c(=O)c1CNC2=O)C1CCOCC1 [Example 21, (Z)-11-(ethyl(tetrahydro-2H-pyran-4-yl)amino)-3-methyl-5,6,7,10,16,17-hexahydro-1H-benzo[c]pyrido[4,3-k][1]azacyclotridecine-1,15(2H)-dione] | 100 nM | 398 nM |
| CCN(c1cccc2c1C/C=C/CCc1cc(C)[nH]c(=O)c1CNC2=O)C1CCN(C(C)C)CC1 [Example 32, (E)-10-(ethyl(1-isopropylpiperidin-4-yl)amino)-3-methyl-5,6,15,16-tetrahydrobenzo[c]pyrido[4,3-j][1]azacyclododecine-1,14(2H,9H)-dione] | 50 nM | 158 nM |
| (E)-11-(ethyl(1-isopropylpiperidin-4-yl)amino)-3-methyl-5,6,7,10,16,17-hexahydro-1H-benzo[c]pyrido[4,3-k][1]azacyclotridecine-1,15(2H)-dione [Example 42] | 20 nM | 158 nM |
| CCN(c1cccc2c1C/C=C/CCc1cc(C)[nH]c(=O)c1CNC2=O)C1CCOCC1 [Example 6, (E)-10-(ethyl(tetrahydro-2H-pyran-4-yl)amino)-3-methyl-5,6,15,16-tetrahydrobenzo[c]pyrido[4,3-j][1]azacyclododecine-1,14(2H,9H)-dione hydrochloride, 0.10 1,4-dioxane solvate] | 100 nM | 158 nM |
| CCN(c1cccc2c1C/C=C/CCc1cc(C)[nH]c(=O)c1CNC2=O)C1CCNCC1 [Example 31, (E)-10-(ethyl(piperidin-4-yl)amino)-3-methyl-5,6,15,16-tetrahydrobenzo[c]pyrido[4,3-j][1]azacyclododecine-1,14(2H,9H)-dione] | 13 nM | 200 nM |
| CCN(c1cccc2c1C/C=C/CCc1cc(C)[nH]c(=O)c1CNC2=O)C1CCN(CCC(F)(F)F)CC1 [Example 43, (E)-10-(ethyl(1-(3,3,3-trifluoropropyl)piperidin-4-yl)amino)-3-methyl-5,6,15,16-tetrahydrobenzo[c]pyrido[4,3-j][1]azacyclododecine-1,14(2H,9H)-dione] | 63 nM | 200 nM |
| CCN(c1cccc2c1C/C=C/CCc1cc(C)[nH]c(=O)c1CNC2=O)C1CCC(F)(F)CC1 [Example 30, (E)-10-((4,4-difluorocyclohexyl)(ethyl)amino)-3-methyl-5,6,15,16-tetrahydrobenzo[c]pyrido[4,3-j][1]azacyclododecine-1,14(2H,9H)-dione] | 16 nM | 79 nM |
